Where two headings read alike, the source gives them in different places.
Columns and labels:
Assay type in all cases: cell-based
[1] = tested on: KRAS-G12D mutant tumor cells AGS; assay: Cell Proliferation Inhibition Assay (AGS), Cell-titer GLO, 96 h; settings: read-out: AGS(G12D)
Procedure, shortened: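 Inhibition % was derived from CellTiter-Glo luminescence (max minus measured, over max minus blank) and fitted to give IC50. Cells were KRAS-G12D AGS in low-attachment wells, treated for 96 h at 37°C.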

[2] = tested on: KRAS-G12V mutant tumor cells SW620; assay: Cell Proliferation Inhibition Assay (SW620), Cell-titer GLO, 96 h; settings: read-out: SW620(G12V)
Procedure, shortened: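 Readout: Cell-titer GLO luminescence after 96 h at 37°C, converted to percent inhibition against 0.5% DMSO and blank controls, with IC50 from curve fit. Low-attachment SW620 cultures (1×10^3 cells/well) were dosed at 10000–0.03 nM final.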

KRAS G12D-cRAF = biological target: T1, KRAS G12D-cRAF (Homo sapiens, UniProt P01116, G12D); assay: Cellular KRAS G12D-cRAF Binding Inhibition Assay (NanoBRET, AD293 stable cells); settings: 3 h incubation
T1 construct: expressed in transfected cells
Protocol: (§1) NanoLuc® luciferase was used as the energy donor, and NanoBRET™ 618 fluorescent ligand labeled with the HaloTag® protein was used as the energy acceptor to detect protein-protein interactions in living cells. AD293 stable cells transfected with KRAS G12D-NanoLuc® luciferase and cRAF RBD-HaloTag® tag protein were seeded in 96-well plates at a cell density of 1×10^4 cells/well. Except for wells with medium added as a blank control, NanoBRET™ 618 fluorescent ligand was added to all other wells, and the plates were cultured overnight in a cell culture incubator. […] The luminescence data were calculated and converted into inhibition percent. The inhibition percent of KRAS G12D-cRAF binding was calculated according to the following formula: Inhibition Percent = (MaxValue−MeasuredValue)/(MaxValue−Blank) × 100% [formula] […] Curve fitting was performed using GraphPad Prism software to obtain IC50 values, see Table 1.

KRAS G12V-cRAF = biological target: T2, KRAS G12V-cRAF (Homo sapiens, UniProt P01116, G12V); assay: Cellular KRAS G12V-cRAF Binding Inhibition Assay (NanoBRET, AD293 stable cells); settings: 3 h incubation
T2 construct: expressed in transfected cells
Protocol: as §1, with “AD293 stable cells transfected with KRAS G12D-NanoLuc® luciferase and cRAF RBD-HaloTag® tag protein were seeded in 96-well plates at a cell density of 1×10^4 cells/well.” left out, “G12V-cRAF” for “G12D-cRAF”

[3] = Homo sapiens, AGS, 96 h, AGS cells, 96 h incubation, Cell-titer GLO
[4] = Homo sapiens, SW-620, 96 h, SW620 cells, 96 h incubation, Cell-titer GLO
[5] = AGS cells, 96 h incubation, Cell-titer GLO
[6] = SW620 cells, 96 h incubation, Cell-titer GLO

| Compound | IC50 [1, 3] [nM] | IC50 [2, 4] [nM] | IC50 (KRAS G12D-cRAF; read-out: NanoBRET KRAS G12D) [nM] | IC50 (KRAS G12V-cRAF; read-out: NanoBRET KRAS G12V) [nM] | IC50 ([1]; Homo sapiens, AGS, 96 h) [nM] | IC50 ([2]; Homo sapiens, SW-620, 96 h) [nM] | IC50 (KRAS G12D-cRAF; NanoBRET KRAS G12D) [nM] | IC50 (KRAS G12V-cRAF; NanoBRET KRAS G12V) [nM] | IC50 [1, 5] [nM] | IC50 [2, 6] [nM] |
| --- | --- | --- | --- | --- | --- | --- | --- | --- | --- | --- |
| CCN1CCN(c2cnc3c(c2)-c2c4c5cc(ccc5n2CCCOC3C)-c2csc(n2)CC(NC(=O)C2C(C)C2C)C(=O)N2CCCC(N2)C(=O)OCC(C)(C)C4)CC1 [Example 159, (1r,2R,3S)-N-((1^5S,6^3S,4S,Z)-1^2-(4-ethylpiperazin-1-yl)-1^5,10,10-trimethyl-5,7-dioxo-1^8,1^9,6^1,6^2 ,6^3,6^4,6^5,6^6-octahydro-1^5H,1^7H-8-oxa-1(13,15)-pyrido[3',2':7,8][1,5]oxazonino[5,6-a]indola-2(4, 2)-thiazola-6(1,3)-pyridazinacycloundecaphane-4-yl)-2,3-dimethylcyclopropane-1-carboxamide] | 0.21 | 0.06 | 0.38 | 3.83 |  |  |  |  |  |  |
| CC1OCCCn2c(c3c4cc(ccc42)-c2csc(n2)CC(NC(=O)C2CC2C(F)F)C(=O)N2CCCC(N2)C(=O)OCC(C)(C)C3)-c2cc(N3CC4CCC3CN4C)cnc21 [Example 154, (1S,2S)-2-(difluoromethyl)-N-((1^5S,6^3S,4S,Z)-1^5,10,10-trimethyl-1^2-(5-methyl-2,5-diazabicyclo[2.2.2]octan-2-yl)-5,7-dioxo-1^8,1^9,6^1,6^2,6^3,6^4,6^5,6^6-octahydro-1^5H,1^7H-8-oxa-1(13,15)-pyrido[3',2 ':7,8][1,5]oxazonino[5,6-a]indola-2(4,2)-thiazola-6(1,3)-pyridazinacycloundecaphane-4-yl)cyclo propane-1-carboxamide] | 1.95 | 0.91 | 4.2 | 19.3 |  |  |  |  |  |  |
| CCN1CCN(c2cnc3c(c2)-c2c4c5cc(ccc5n2CC(C)COC3C)-c2csc(n2)CC(NC(=O)C2CC2C(F)F)C(=O)N2CCCC(N2)C(=O)OCC(C)(C)C4)CC1 [Example 161, (1S,2S)-2-(difluoromethyl)-N-((1^5S,1^8R,6^3S,4S,Z)-1^2-(4-ethylpiperazin-1-yl)-1^5,1^8,10,10-tetramethyl-5,7-dioxo-1^8,1^9,6^1,6^2,6^3,6^4,6^5,6^6-octahydro-1^5H,1^7H-8-oxa-1(13,15)-pyrido[3',2':7,8][1,5]oxazonino[5,6-a]indola-2(4,2)-thiazola-6(1,3)-pyridazinacycloundecaphane-4-yl)cyclopropane-1-c arboxamide] | 0.71 | 0.24 | 0.92 | 4.52 |  |  |  |  |  |  |
| C[C@@H]1OCCCn2c(c3c4cc(ccc42)-c2csc(n2)C[C@H](NC(=O)[C@H]2C[C@@H]2C)C(=O)N2CCC[C@H](N2)C(=O)OCC(C)(C)C3)-c2cc(N3CCN(C)CC3)cnc21 [Example 1, (1S,2S)-2-methyl-N-((1^5S,6^3S,4S,Z)-1^5,10,10-trimethyl-1^2-(4-methylpiperazin-1-yl)-5,7-dioxo-1 ^8,1^9,6^1,6^2,6^3,6^4,6^5,6^6-octahydro-1^5H,1^7-oxa-1(13,15)-pyrido[3',2':7,8][1,5]oxazonino[5,6-a]indola-2(4,2)-thiazola-6(1,3)-pyridazinacycloundecaphane-4-yl)cyclopropane-1-carboxamide] |  |  |  |  | 7.86 | 0.54 | 6.1 | 29.9 |  |  |
| CC1OCCCn2c(c3c4cc(ccc42)-c2csc(n2)CC(NC(=O)C2CC2C(F)F)C(=O)N2CCCC(N2)C(=O)OCC(C)(C)C3)-c2cc(N3CCN4CCOCC4C3)cnc21 [Example 110, (1S,2S)-2-(difluoromethyl)-N-((1^5S,6^3S,4S,Z)-1^2-((S)-hexahydropyrazino[2,1-c][1,4]oxazin-8(1 H)-yl)-1^5,10,10-trimethyl-5,7-dioxo-1^8,1^9,6^1,6^2,6^3,6^4,6^5,6^6-octahydro-1^5H,1^7H-8-oxa-1(13,15)-pyrido[3',2':7,8][1,5]oxazonino[5,6-a]indola-2(4,2)-thiazola-6(1,3)-pyridazinacycloundecaphane-4-yl)cyclopropane-1-carboxamide] | 1.12 | 0.15 | 4.17 | 14 |  |  |  |  |  |  |
| (1S,2S)-2-(difluoromethyl)-N-((1^5S,6^3S,4S,Z)-1^5,10,10-trimethyl-1^2-(6-methyl-3,6-diazabicyclo[ 3.1.1]heptan-3-yl)-5,7-dioxo-1^8,1^9,6^1,6^2,6^3,6^4,6^5,6^6-octahydro-1^5H,1^7H-8-oxa-1(13,15)-pyrido[3', 2':7,8][1,5]oxazonino[5,6-a]indola-2(4,2)-thiazola-6(1,3)-pyridazinacycloundecaphane-4-yl)cycl opropane-1-carboxamide [Example 150] |  |  | 1.61 | 8.1 |  |  |  |  | 0.93 | 0.16 |
| CC1OCCCn2c(c3c4cc(ccc42)-c2csc(n2)CC(NC(=O)C2CC2C(F)F)C(=O)N2CCCC(N2)C(=O)OCC(C)(C)C3)-c2cc(N3CCN(C4CCN(C)CC4)CC3)cnc21 [Example 104, (1S,2S)-2-(difluoromethyl)-N-((1^5S,6^3S,4S,Z)-1^5,10,10-trimethyl-1^2-(4-(1-methylpiperidin-4-yl)piperazin-1-yl)-5,7-dioxo-1^8,1^9,6^1,6^2,6^3,6^4,6^5,6^6-octahydro-1^5H,1^7H-8-oxa-1(13,15)-pyrido[3',2': 7,8][1,5]oxazonino[5,6-a]indola-2(4,2)-thiazola-6(1,3)-pyridazinacycloundecaphane-4-yl)cyclop ropane-1-carboxamide] | 0.63 | 0.2 | 3.2 | 11.8 |  |  |  |  |  |  |
| CC1OCCCn2c(c3c4cc(ccc42)-c2csc(n2)CC(NC(=O)C2CC2C(F)F)C(=O)N2CCCC(N2)C(=O)OCC(C)(C)C3)-c2cc(N3CCN(C)C(C)C3)cnc21 [Example 138, (1S,2S)-2-(difluoromethyl)-N-((1^5S,6^3S,4S,Z)-1^2-((R)-3,4-dimethylpiperazin-1-yl)-1^5,10,10-trimethyl-5,7-dioxo-1^8,1^9,6^1,6^2,6^3,6^4,6^5,6^6-octahydro-1^5H,1^7H-8-oxa-1(13,15)-pyrido[3',2':7,8][1,5]oxazonino[5,6-a]indola-2(4,2)-thiazola-6(1,3)-pyridazinacycloundecaphane-4-yl)cyclopropane-1-carboxamide] | 1.59 | 0.63 | 3.2 | 14.7 |  |  |  |  |  |  |
| CC1OCCCn2c(c3c4cc(ccc42)-c2csc(n2)CC(NC(=O)C2CC2C(F)F)C(=O)N2CCCC(N2)C(=O)OCC(C)(C)C3)-c2cc(N3CC(C)N(C)C(C)C3)cnc21 [Example 142, (1S,2S)-2-(difluoromethyl)-N-((1^5S,6^3S,4S,Z)-1^5,10,10-trimethyl-5,7-dioxo-1^2-((3S,5S)-3,4,5-trimethylpiperazin-1-yl)-1^8,1^9,6^1,6^2,6^3,6^4,6^5,6^6-octahydro-1^5H,1^7H-8-oxa-1(13,15)-pyrido[3',2':7,8] [1,5]oxazonino[5,6-a]indola-2(4,2)-thiazola-6(1,3)-pyridazinacycloundecaphane-4-yl)cyclopropane-1-carboxamide] |  |  | 1.88 | 5.61 |  |  |  |  | 0.3 | 0.09 |
| CC1OCCCn2c(c3c4cc(ccc42)-c2csc(n2)CC(NC(=O)C2CC2C(F)F)C(=O)N2CCCC(N2)C(=O)OCC(C)(C)C3)-c2cc(N3CCN(C)CC3)cnc21 [Example 81, (1S,2S)-2-(difluoromethyl)-N-((1^5S,6^3S,4S,Z)-1^5,10,10-trimethyl-1^2-(4-methylpiperazin-1-yl)-5,7-dioxo-1^8,1^9,6^1,6^2,6^3,6^4,6^5,6^6-octahydro-1^5H,1^7H-8-oxa-1(13,15)-pyrido[3',2':7,8][1,5]oxazonino[5,6-a]indola-2(4,2)-thiazola-6(1,3)-pyridazinacycloundecaphane-4-yl)cyclopropane-1-carboxamide] | 0.79 | 0.11 | 3.14 | 9.6 |  |  |  |  |  |  |

From patent EP4800018A1, “PAN-KRAS INHIBITOR AND USE THEREOF IN MEDICINES” (Betta Pharmaceuticals Co., Ltd., priority 2023, dated 2025)
